US20250129103A1, “METHODS FOR TREATMENT OF CANCER” (Frontier Medicines Corporation, priority 2022, published 2025)
Values after ≈ are worked out from the molar mass of the structure shown.

Assays:
[1] = target: KRAS G12C (GMPPNP-loaded) and cRAF (Ras-binding domain) interaction (Homo sapiens (Human), UniProt P01116, C118S/C51S/C80L/G12C); experiment: Inhibition of KRAS G12C and cRAF binding (AlphaScreen); settings: KRAS G12C loaded with GMPPNP, cRaf RBD, 2 hours preincubation; read-out: Raf-1 RBD K-Ras IC50
Procedure: Compounds were diluted in 100% DMSO and each compound concentration was spotted at 200 nl/well onto low volume, white 384 well plates. […] KRAS G12C was preloaded with the GTP analogue Guanosine 5′-[β,γ-imido]triphosphate (GMPPNP). The KRAS G12C was diluted in 25 mM Hepes, pH 7.4, 150 mM NaCl, 5 mM MgCl2, 0.01% TritonX-100 and 10 μM GMPPNP and added at 10 ul/well to compound-spotted plates resulting in a DMSO concentration of 2%. Plates were incubated for 2 hours. A mixture of RBD and the AlphaScreen streptavidin donor and glutathione acceptor beads diluted in 25 mM Hepes, pH 7.4, 150 mM NaCl, 5 mM MgCl2, 0.01% TritonX-100 and 2% DMSO was then added at 10 ul/well and incubated for 60-90 minutes before the samples were read for emission at 570 nm after excitation of the donor beads at 680 nm. All incubations were performed at room temperature. The final top compound concentration was 50 μM with 1:3 titrations for 10-point dose response curves. […] IC50S were determined using nonlinear regression fit of [inhibitor] vs. response (4 parameters). […]

[2] = Determination of logD (1-octanol / phosphate buffer pH 7.4); type: physicochemical; settings: for logD: 1-octanol/phosphate buffer, pH 7.4, pH 7.4, 1-octanol/phosphate buffer, read-out: Log D, pH 7.4; for Log D, pH 7.4: pH 7.4, 1-octanol/phosphate buffer
Procedure: Preparation of phosphate buffer saturated with 1-octanol: 10 mL of 100 mM phosphate buffer (pH 7.4) was added to 100 mL of 1-octanol. The mixture was shaken vigorously and left to stand at room temperature overnight.
Preparation of 1-octanol saturated with phosphate buffer: 10 mL of 1-octanol was added to 100 mL of 100 mM phosphate buffer (pH 7.4). The mixture was shaken vigorously and left to stand at room temperature overnight.
149 μL of phosphate buffer saturated with 1-octanol was added into 1st sample tube. 149 μL of 1-octanol saturated with phosphate buffer was added into the 2nd sample tube. The sample tubes were mixed vigorously and shaken for 1 hour at a speed of 800 rpm at room temperature. The sample tubes were subjected to centrifugation at 4000 rpm for 5 minutes at room temperature. Samples of the supernatant were taken from both tubes, diluted with an appropriate LCMS buffer, and analyzed on an LCMS instrument. LogD was calculated according to the following equation.

[3] = Determination of kinetic solubility (pH 7.4); type: physicochemical; settings: for solubility kinetic at 2 h: phosphate buffer, pH 7.4, aqueous buffer, kinetic from dmso stock, 50 mM phosphate buffer pH 7.4, read-out: Ksol, pH 7.4; for Ksol, pH 7.4 (ug/mL): 50 mM phosphate buffer pH 7.4
Procedure: 490 μL of a 50 mM phosphate buffer (pH 7.4) was added to the sample solution. The mixture was vortexed for at least 2 minutes. The vial was shaken on a Barnstead shaker at 800 rpm at room temperature for 2 hours. The vial was centrifuged at 4000 rpm for 20 minutes. The Mini-UniPrep vial was compressed to prepare a filtrate, which was injected into an HPLC-UV and LC-MS/MS system. Kinetic solubility was calculated by referencing sample peak areas to a standard calibration curve.

Sequence of KRAS G12C (GMPPNP-loaded) and cRAF (Ras-binding domain) interaction (P01116 other isoform, or with tags, fused parts or gaps G12C/C51S/C80L/C118S): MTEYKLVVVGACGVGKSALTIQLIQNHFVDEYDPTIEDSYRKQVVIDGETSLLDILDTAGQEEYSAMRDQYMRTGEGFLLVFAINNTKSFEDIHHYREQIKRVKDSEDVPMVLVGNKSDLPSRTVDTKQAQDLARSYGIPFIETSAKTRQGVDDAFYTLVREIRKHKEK

Row | Compound | IC50 [1] | logD [2] | solubility kinetic at 2 h [3] | Ksol, pH 7.4 (ug/mL) [3] | Log D, pH 7.4 [2]
1 | N#CC[C@H]1CN(c2nc(OC[C@@]34CCCN3C[C@H](F)C4)nc3c(F)c(-c4cccc5cccc(Cl)c45)ncc23)CCN1C(=O)/C=C/c1nc([C@H]2C[C@@H]2F)no1 [Compound 15, 2-((S)-4-(7-(8-chloronaphthalen-1-yl)-8-fluoro-2-(((2R,7aS)-2-fluorotetrahydro-1H-pyrrolizin-7a(5H)-yl)methoxy)pyrido[4,3-d]pyrimidin-4-yl)-1-((E)-3-(3-((1R,2S)-2-fluorocyclopropyl)-1,2,4-oxadiazol-5-yl)acryloyl)piperazin-2-yl)acetonitrile] | 100 to 500 nM | 4.24 | 0.01 µg/mL (≈ 0.013 µM) |  | 
2 | N#CC[C@H]1CN(c2nc(OC[C@@]34CCCN3C[C@H](F)C4)nc3c(F)c(-c4cccc5cccc(Cl)c45)ncc23)CCN1C(=O)/C=C/c1nc(C(F)F)no1 [Compound 20] | < 10 nM | 2.61 | 0.28 µg/mL (≈ 0.367 µM) |  | 
3 | Cn1cnc(/C=C/C(=O)N2CCN(c3nc(OCC45CCCN4CCC5)nc4c3CCN(c3cccc5cccc(Cl)c35)C4)C[C@@H]2CC#N)n1 [Compound 21] | > 500 nM | 2.48 | 89.8 µg/mL (≈ 130 µM) |  | 
4 | Cn1cnc(/C=C/C(=O)N2CCN(c3nc(OCC45CCCN4CCC5)nc4c3CCN(c3cccc5cccc(Cl)c35)C4)C[C@@H]2CC#N)c1 [Compound 22] | > 500 nM | 2.92 | 77.7 µg/mL (≈ 112 µM) |  | 
5 | N#CC[C@H]1CN(c2nc(OCC34CCCN3CCC4)nc3c(F)c(-c4cccc5cccc(Cl)c45)ncc23)CCN1C(=O)/C=C/c1nc(C2CC2)no1 [Compound 24] | 100 to 500 nM | 2.71 | 38.5 µg/mL (≈ 52.4 µM) |  | 
6 | N#CC[C@H]1CN(c2nc(OCC34CCCN3CCC4)nc3c(F)c(-c4cccc5cccc(Cl)c45)ncc23)CCN1C(=O)/C=C/c1nc(C(F)F)no1 [Compound 27] | < 10 nM | 2.52 | 103 µg/mL (≈ 138 µM) |  | 
7 | Cc1noc(/C=C/C(=O)N2CCN(c3nc(OCC45CCCN4CCC5)nc4c3CCN(c3cccc5cccc(Cl)c35)C4)C[C@@H]2CC#N)n1 [Compound 28] | 100 to 500 nM |  |  | 43.66 ug/mL | 3.22
8 | Cc1nnc(/C=C/C(=O)N2CCN(c3nc(OCC45CCCN4CCC5)nc4c3CCN(c3cccc5cccc(Cl)c35)C4)C[C@@H]2CC#N)[nH]1 [Compound 29] | > 500 nM | 2.84 | 74.7 µg/mL (≈ 108 µM) |  | 
9 | Cc1noc(/C=C/C(=O)N2CCN(c3nc(OCC45CCCN4CCC5)nc4c3CCN(c3cccc5cccc(Cl)c35)C4)C[C@@H]2CC#N)n1 [Compound 32] | 10 to 100 nM |  |  | 79.78 ug/mL | 3.62
10 | CC(C)(C)c1noc(/C=C/C(=O)N2CCN(c3nc(OCC45CCCN4CCC5)nc4c(F)c(-c5cccc6cccc(Cl)c56)ncc34)C[C@@H]2CC#N)n1 [Compound 33] | 100 to 500 nM | 3.73 | 50 µg/mL (≈ 66.7 µM) |  | 
11 | CC(C)(C)c1noc(/C=C/C(=O)N2CCN(c3nc(OC[C@@]45CCCN4C[C@H](F)C5)nc4c(F)c(-c5cccc6cccc(Cl)c56)ncc34)C[C@@H]2CC#N)n1 [Compound 34] | 100 to 500 nM | 5.11 | 0.01 µg/mL (≈ 0.013 µM) |  | 
12 | C=C(C)c1c(Cl)cccc1-c1ncc2c(N3CCN(C(=O)/C=C/CN4C5CCC4COC5)[C@@H](CC#N)C3)nc(OC[C@@]34CCCN3C[C@H](F)C4)nc2c1F [Compound 326] | < 10 nM |  |  |  | 

Continued, values first:

Row | IC50 [1] | logD [2] | solubility kinetic at 2 h [3] | Ksol, pH 7.4 (ug/mL) [3] | Log D, pH 7.4 [2] | Compound
13 | 10 to 100 nM | 2.98 |  |  |  | Cc1cc(N)nc(C2Cc3nc(OC[C@@]45CCCN4C[C@H](F)C5)nc(N4CCN(C(=O)/C=C/CN5CCOCC5)[C@@H](CC#N)C4)c3CC2C)c1C(F)(F)F (mixture of isomers) [Example 67, 2-((2S)-4-(7-(6-amino-4-methyl-3-(trifluoromethyl)pyridin-2-yl)-2-(((2R,7aS)-2-fluorotetrahydro-1H-pyrrolizin-7a(5H)-yl)methoxy)-6-methyl-5,6,7,8-tetrahydroquinazolin-4-yl)-1-((E)-4-morpholinobut-2-enoyl)piperazin-2-yl)acetonitrile]
14 | 100 to 500 nM | 2.77 | 111 µg/mL (≈ 161 µM) |  |  | N#CC[C@H]1CN(c2nc(OCC34CCCN3CCC4)nc3c2CCN(c2cccc4cccc(Cl)c24)C3)CCN1C(=O)/C=C/c1ncccn1 [Compound 35]
15 | 10 to 100 nM | 3.98 | 2.62 µg/mL (≈ 3.55 µM) |  |  | N#CC[C@H]1CN(c2nc(OCC34CCCN3CCC4)nc3c2CCN(c2cccc4cccc(Cl)c24)C3)CCN1C(=O)/C=C/c1nc([C@H]2C[C@@H]2F)no1 [Compound 36]
16 | 10 to 100 nM | 4.85 | 0.01 µg/mL (≈ 0.0132 µM) |  |  | N#CC[C@H]1CN(c2nc(OC[C@@]34CCCN3C[C@H](F)C4)nc3c2CCN(c2cccc4cccc(Cl)c24)C3)CCN1C(=O)/C=C/c1nc([C@H]2C[C@@H]2F)no1 [Compound 37]
17 | 100 to 500 nM | 2.91 | 53.9 µg/mL (≈ 71.7 µM) |  |  | N#CC[C@H]1CN(c2nc(OCC34CCCN3CCC4)nc3c(F)c(-c4cccc5cccc(Cl)c45)ncc23)CCN1C(=O)/C=C/c1nc([C@H]2C[C@@H]2F)no1 [Compound 38]
18 | 10 to 100 nM |  | 106 µg/mL (≈ 147 µM) |  |  | N#CC[C@H]1CN(c2nc(OCC34CCCN3CCC4)nc3c(F)c(-c4cccc5cccc(Cl)c45)ncc23)CCN1C(=O)/C=C/CN1CCOCC1 [Compound 149]
19 | < 10 nM |  | 89.1 µg/mL (≈ 121 µM) |  |  | Cc1nccc(/C=C/C(=O)N2CCN(c3nc(OCC45CCCN4CCC5)nc4c(F)c(-c5cccc6ccc(F)c(Cl)c56)ncc34)C[C@@H]2CC#N)n1 [Compound 155]
20 | < 10 nM |  |  |  |  | N#CC[C@H]1CN(c2nc(OC[C@@]34CCCN3C[C@H](F)C4)nc3c(F)c(-c4cccc(Cl)c4C(F)(F)F)ncc23)CCN1C(=O)/C=C/CN1CCOCC1 [Compound 296]
21 | 10 to 100 nM |  |  |  |  | C[C@@H]1CN(C/C=C/C(=O)N2CCN(c3nc(OC[C@@]45CCCN4C[C@H](F)C5)nc4c(F)c(-c5cccc(Cl)c5C5CC5)ncc34)C[C@@H]2CC#N)C[C@@H](C)O1 [Compound 301]
22 | < 10 nM |  |  |  |  | N#CC[C@H]1CN(c2nc(OC[C@@]34CCCN3C[C@H](F)C4)nc3c(F)c(-c4cccc5cccc(Cl)c45)ncc23)CCN1C(=O)/C=C/CN1CC[C@H](OC(F)F)C1 [Compound 303]
23 | < 10 nM |  |  |  |  | N#CC[C@H]1CN(c2nc(OC[C@@]34CCCN3C[C@H](F)C4)nc3c(F)c(-c4cccc5cccc(Cl)c45)ncc23)CCN1C(=O)/C=C/CN1CC[C@@H](OC(F)F)C1 [Compound 304]
24 | 10 to 100 nM |  |  |  |  | CCN1CC[C@@H]1/C=C/C(=O)N1CCN(c2nc(OC[C@@]34CCCN3C[C@H](F)C4)nc3c(F)c(-c4cccc(Cl)c4C4CC4)ncc23)C[C@@H]1CC#N [Compound 312]
25 | 100 to 500 nM |  |  |  |  | CC(C)N1CC[C@@H]1/C=C/C(=O)N1CCN(c2nc(OC[C@@]34CCCN3C[C@H](F)C4)nc3c(F)c(-c4cccc(Cl)c4C4CC4)ncc23)C[C@@H]1CC#N [Compound 313]
26 | < 10 nM |  |  |  |  | CC(=O)N1CCN(C/C=C/C(=O)N2CCN(c3nc(OC[C@@]45CCCN4C[C@H](F)C5)nc4c(F)c(-c5cccc6cccc(Cl)c56)ncc34)C[C@@H]2CC#N)CC1 [Compound 324]
27 |  |  | 78.2 µg/mL (≈ 103 µM) |  |  | Cc1cc(N)nc(C2Cc3nc(OC[C@@]45CCCN4C[C@H](F)C5)nc(N4CCN(C(=O)/C=C/CN5CCOCC5)[C@@H](CC#N)C4)c3CC2C)c1C(F)(F)F (stereo partly drawn) [Example 67, 2-((2S)-4-(7-(6-amino-4-methyl-3-(trifluoromethyl)pyridin-2-yl)-2-(((2R,7aS)-2-fluorotetrahydro-1H-pyrrolizin-7a(5H)-yl)methoxy)-6-methyl-5,6,7,8-tetrahydroquinazolin-4-yl)-1-((E)-4-morpholinobut-2-enoyl)piperazin-2-yl)acetonitrile]
28 |  |  | 102 µg/mL (≈ 140 µM) |  |  | Cc1cc(N)nc(C2Cc3nc(OC[C@@]45CCCN4C[C@H](F)C5)nc(N4CCN(C(=O)/C=C/C5CCN5C)[C@@H](CC#N)C4)c3CC2C)c1C(F)(F)F (stereo partly drawn) [Example 68, 2-((2S)-4-(7-(6-amino-4-methyl-3-(trifluoromethyl)pyridin-2-yl)-2-(((2R,7aS)-2-fluorohexahydro-1H-pyrrolizin-7a-yl)methoxy)-6-methyl-5,6,7,8-tetrahydroquinazolin-4-yl)-1-((E)-3-(1-methylazetidin-2-yl)acryloyl)piperazin-2-yl)acetonitrile]
